Results on one compound are retold here after article doi:10.1101/2025.11.05.686689v1 (biorxiv, 2025).

A word on the Kd: it is the equilibrium constant for the complex coming apart.

SMILES strings stand for the structures.

The assay addresses CAPON (NOS1AP), recombinant, C-terminal His tag (Homo sapiens, UniProt O75052). Description: microscale thermophoresis. It counts as binding.

Chain of CAPON (NOS1AP), recombinant, C-terminal His tag (O75052 whole entry): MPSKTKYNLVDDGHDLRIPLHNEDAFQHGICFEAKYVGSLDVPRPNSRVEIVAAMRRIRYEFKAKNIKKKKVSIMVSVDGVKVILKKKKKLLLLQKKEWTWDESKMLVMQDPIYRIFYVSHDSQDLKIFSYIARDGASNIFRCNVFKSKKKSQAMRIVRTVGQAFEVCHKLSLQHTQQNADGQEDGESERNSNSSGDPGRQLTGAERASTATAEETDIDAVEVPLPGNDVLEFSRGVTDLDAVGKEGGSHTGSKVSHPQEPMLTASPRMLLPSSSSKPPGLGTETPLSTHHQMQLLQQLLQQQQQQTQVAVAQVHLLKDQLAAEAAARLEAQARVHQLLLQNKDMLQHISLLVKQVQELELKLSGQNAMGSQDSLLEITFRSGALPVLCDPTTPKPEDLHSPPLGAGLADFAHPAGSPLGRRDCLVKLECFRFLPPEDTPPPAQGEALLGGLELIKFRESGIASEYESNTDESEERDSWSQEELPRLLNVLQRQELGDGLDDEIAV

Consider `COc1ccc(NC(=O)c2ccco2)cc1NC(=O)c1cc2ccccc2cc1OC` [MA32], for which the Kd is 74 ± 15 µM.
